The text below walks through data of PMC12040169 (PLOS Biology, 2025).

The term viability denotes a read-out of living cells in per cent, often relative to untreated cells.

Each structure is given as a SMILES string.

The data set is described as follows: in vitro. To be noted: human, hela cells, % viability.
On to `Cc1nn(Cc2nnn(CC(=O)O)n2)c(C)c1Br` [CBK009457], for which the viability at 28.5 h, 10 µM stood at 101%. Then `Nn1c(SCc2cc(=O)[nH]c3ccccc23)nnc1C(O)c1ccccc1` (centres unmarked) [CBK268405], with 99.2%; and `Cc1nc(-c2ccccc2)sc1C(=O)C1=C(O)C(=O)N(CCCN2CCOCC2)C1c1ccco1` (centres unmarked) [CBK266476], with 111%; and `O=S(=O)(c1ccc(Cl)c(Cl)c1)N1CCOCC1` [CBK043794], with 90.7%.

Turning to `CCOC(=O)c1ccc(N2C(=O)CC(N3CCCc4ccccc43)C2=O)cc1` (centres unmarked) [CBK268720], the viability at 28.5 h, 10 µM was 109%. Then `Cc1nc(C)n(CC2CCCN(Cc3cc(C#N)cs3)C2)n1` (centres unmarked) [CBK304787], with 92%. Then `Cc1csc(-c2ccc(C(=O)N(C)CCN(C)C)c(N(C)C)n2)c1` [CBK106088], with 94.1%. Under `CN(C)C(=O)CN1CCN(C(=O)c2ccccc2C(=O)c2ccc(F)cc2)CC1` [CBK297921] stands 89.5%; under `Cc1ccccc1-c1csc2c(=O)[nH]c(N3CCC4(CC3)OCCO4)nc12` [CBK291141], 96.9%. Turning to `COc1ccc(-c2nc(NC(=O)c3ccc(S(N)(=O)=O)cc3)cnc2-c2cccc(C)c2)cc1` [CBK037559], the viability at 28.5 h, 10 µM was 103%.

Regarding `COc1ccc(Oc2cc(Cl)nc(N)n2)cc1` [CBK261771], the viability at 28.5 h, 10 µM was 101%. Then `CC(C)S(=O)(=O)N1C2CCC(C2)[C@@H]1COc1ccc(F)cc1` (some centres unmarked) [CBK285292], with 101%. Under `FC(F)(F)c1ccnc(SCCOc2ccccc2)n1` [CBK103721] stands 73.9%; under `CCCc1nc(SC)ncc1C(=O)NCc1ccccn1` [CBK291190], 108%; under `COc1cc(OC)cc(C(=O)Nc2cc(C)c3c(=O)oc4ccccc4c3n2)c1` [CBK291221], 95.2%. Consider `CCOc1ccc(S(=O)(=O)N(CC)CC(=O)O)cc1C` [CBK269770], for which the viability at 28.5 h, 10 µM came out at 91.5%. Then `O=C(Nc1cccc(N2CCNCC2)c1)c1cccnc1` [CBK029414T], with 94.6%; and `CN1CCN(c2ccccc2NC(=O)c2ccc3c(c2)OCCO3)CC1` [CBK268072], with 101%. For the compound `O=C(O)C(Cc1ccccc1)N1C(=O)/C(=C/c2cccc([N+](=O)[O-])c2)SC1=S` (centres unmarked) [CBK263078], the viability at 28.5 h, 10 µM was determined as 98.4%. Under `O=c1c2sccc2nc2n1CCN(Cc1ccc(F)c(F)c1)CC2` [CBK282295] stands 103%. For `Cc1cc2ncc(-c3[nH]ncc3[N+](=O)[O-])cn2n1` [CBK269106], the viability at 28.5 h, 10 µM came to 98.1%. `Cn1cccc1CNCCN1CCOCC1` [CBK278187C]: the viability at 28.5 h, 10 µM came out at 89.2%. Then `Cc1noc(C)c1C(=O)N1CCOCC1` [CBK057765], with 80.5%. For the compound `Cc1cc(C(=O)CSc2nccc(C(F)(F)F)n2)c(C)n1C1CC1` [CBK305238], the viability at 28.5 h, 10 µM was 80%. As for `O=C1CN(C(=O)Nc2ccc3c(c2)OCCO3)CCN1` [CBK155860], the viability at 28.5 h, 10 µM was determined as 92.9%. Under `O=S1(=O)C=C(c2ccc(Cl)cc2)S(=O)(=O)CC1` [CBK018403] stands 86.3%; under `COc1cc(NC(=O)CSc2nncn2C)c(OC)cc1Cl` [CBK270307], 86.4%; under `COc1cccc(N2C(=O)N[C@@H]3CCN(C(=O)c4cccs4)[C@@H]3C2=O)c1` [CBK289279], 82.3%.

In the case of `CN(C)CCC1CCCCN1C(=O)C1C2CCCCC21` (centres unmarked) [CBK282055], the viability at 28.5 h, 10 µM turned out to be 98.9%. Under `Cc1cccn2cc(CCNC(=O)CN(C)C3CCSC3)nc12` (centres unmarked) [CBK304027] stands 84.6%; under `COc1ccc(Nc2ccc(-c3ccc4ccccc4c3)cn2)cn1` [CBK037744], 88.6%. As to `O=C(O)C1CC=CCC1C(=O)N1CCN(C(=O)c2ccco2)CC1` (centres unmarked) [CBK299784], the viability at 28.5 h, 10 µM is 94.1%. Under `Nc1cccc(-c2cc(Nc3ccc(Cl)cc3)ncn2)c1` [CBK090886] stands 91.7%.

As for `Cc1ccc(C(=O)N/C(=C\c2cccc([N+](=O)[O-])c2)C(=O)NC2CCCCC2)cc1` [CBK261407], the viability at 28.5 h, 10 µM was determined as 89.2%. `Nc1ncc(-c2ccc(C(F)(F)F)cc2)c(C2CCCN(C(=O)c3ccccc3)C2)n1` (centres unmarked) [CBK285790]: the viability at 28.5 h, 10 µM was found to be 89.2%. Under `O=C(COc1ccc(S(=O)(=O)NC2CCCCC2)cc1)N1CCN(c2cccc(Cl)c2)CC1` [CBK265948] stands 90.6%; under `FC(F)(F)Oc1ccccc1-c1nnc(NC2CCCCCC2)s1` [CBK074041], 93.8%; under `O=C(O)CCNc1ncnc2ccccc12` [CBK126920], 99.4%. Under `COc1cc(CNc2nc(O)cc(C(F)(F)F)n2)cc(OC)c1OC` [CBK002390] stands 90.3%. Under `COc1ccc(-c2cn(-c3cc(Cl)ccc3C)nn2)cc1` [CBK113023] stands 58.6%; under `CN1CCC(N(C)C(=O)c2ccc(-c3ccccc3CO)cc2)C1` (centres unmarked) [CBK307432], 103%; under `C#CCNS(=O)(=O)c1ccc(C(=O)Nc2ccnn2Cc2ccccc2)cc1` [CBK297727], 96.4%. For the compound `Cn1ccnc1CN1CCNC(=O)C1c1ccccc1C(F)(F)F` (centres unmarked) [CBK306415], the viability at 28.5 h, 10 µM came to 85.1%. On to `Cc1n[nH]cc1CN(CCCn1ccnc1)Cc1cccc(F)c1` [CBK282650], for which the viability at 28.5 h, 10 µM was 90.1%.

Turning to `COc1ccc(C(C)C)cc1-c1nc2ncccc2cc1N` [CBK067614], the viability at 28.5 h, 10 µM was determined as 95.8%. Under `O=C(c1ccco1)N1CCN(S(=O)(=O)c2ccc3c(c2)C(=NO)c2cc(S(=O)(=O)N4CCN(C(=O)c5ccco5)CC4)ccc2-3)CC1` [CBK262103] stands 104%.

`CCn1c(=O)n(CC(=O)NCc2ccc(F)cc2)c2cccnc21` [CBK283901]: the viability at 28.5 h, 10 µM is 87.8%. Under `Cc1ccccc1OCc1nn2c(C)nnc2s1` [CBK269220] stands 100%. Then `Cn1c(C(=O)NCc2ccccc2)cc2ccccc21` [CBK200195], with 81.7%; and `COC(CNC(=O)Cn1nnnc1CN1CCC(C)CC1)c1cccs1` (centres unmarked) [CBK306958], with 109%. For `Cc1nc2ccccc2nc1SCc1nc(N)nc(N2CCCCC2)n1` [CBK270218], the viability at 28.5 h, 10 µM is 92.2%.

`CC(=O)Nc1cccc(-c2cn3ccnc3c(N[C@@H](CO)C(C)C)n2)c1` [CBK036605]: the viability at 28.5 h, 10 µM was 106%.

In the case of `Cc1cc(C)nc(Nc2n[nH]c(-c3cccnc3)n2)n1` [CBK267120], the viability at 28.5 h, 10 µM is 98%. Then `CC(C)Cc1ccc(C(C)c2nc3ccccc3[nH]2)cc1` (centres unmarked) [CBK261484], with 89.7%. Then `COc1cc(C)c(Nc2cc(-c3cccnc3)ncn2)cc1OC` [CBK037754], with 102%; and `Cc1ccc(C2=NN(c3ccccc3)C(c3cn(CCC(=O)O)nc3-c3ccccc3)C2)cc1` (centres unmarked) [CBK296110], with 107%. Then `C1=CCC(CN2CCN(C3CCN(Cc4ccccc4)CC3)CC2)CC1` (centres unmarked) [CBK263469], with 91.6%; and `O=C(NC(c1ccc(-c2ccccc2)cc1)c1cnccn1)C1CCN(C/C=C/c2ccccc2)CC1` (centres unmarked) [CBK147984], with 104%. Take `CS(=O)(=O)Nc1ccc(C(=O)Nc2ccc(S(=O)(=O)N3CCCCCC3)cc2)cc1` [CBK268288]: the viability at 28.5 h, 10 µM amounted to 107%.

As to `CCN(Cc1cnn(C)c1)[C@H]1CCO[C@@H](c2ccccc2-c2ccc(OC)cc2)C1` [CBK285854], the viability at 28.5 h, 10 µM was 98%. Under `CC(=O)Nc1ccc(C(=O)N2CCCC(c3cccc(Cc4ccccc4Cl)n3)C2)cc1` (centres unmarked) [CBK286126] stands 109%; under `CCc1nc2ccc(C(=O)N(C)Cc3ccccc3)cn2c1N(C=O)CC` [CBK145936], 102%. For the compound `COc1ccccc1CN(C)CCc1ccccn1` [CBK261741G], the viability at 28.5 h, 10 µM is 87.2%.

As for `COc1cccc(C(=O)N2CCC(c3cc4ncccc4[nH]3)CC2)c1` [CBK283398], the viability at 28.5 h, 10 µM was 117%.

For `CCC(c1c(O)c2ccccc2oc1=O)c1cccc2ccccc12` (centres unmarked) [CBK016684], the viability at 28.5 h, 10 µM is 102%.

On to `Nc1cc(N)nc(SCc2cccnc2)n1` [CBK267459], for which the viability at 28.5 h, 10 µM was 97.5%. Under `COc1ccc(C(=O)Cn2nc3nnc(-c4ccccc4)c(-c4ccccc4)n3c2=O)cc1` [CBK286181] stands 83.4%; under `COc1cncc(-c2ccc(N3CCN(CCN(C)C)CC3)nc2)c1` [CBK037720], 88.9%. In the case of `Cc1ccc(S(=O)(=O)Nc2sccc2C(=O)O)cc1[N+](=O)[O-]` [CBK042258], the viability at 28.5 h, 10 µM amounted to 102%. Under `COc1ccc(CC(=O)Nc2nc(OCC(F)(F)F)cnc2-c2ccc(Cl)cc2Cl)cc1` [CBK145359] stands 91%. Then `Cc1cccc(C)c1NC(=O)CSc1nnc(C(O)c2ccccc2)n1C` (centres unmarked) [CBK269742], with 84.8%; and `COc1ccc(C(C)C)cc1-c1nccnc1NC1CCC(N)CC1` (centres unmarked) [CBK036703], with 108%; and `CC1CN(c2ccccc2Br)NC1=O` (centres unmarked) [CBK026500], with 96.7%. Then `COCCNc1nc(-c2cncc(OC)c2)cnc1N` [CBK063606], with 103%; and `FC(F)(F)c1ccc(CN2CCCN(c3ccnc(OCC4COc5ccccc5O4)n3)CC2)cc1` (centres unmarked) [CBK083233T], with 93%; and `CCC(CC)C(=O)N1C[C@H]2CCc3cn(CCNC(C)=O)nc3[C@H]2C1` [CBK282183], with 104%. In the case of `O=C(O)c1ccc(Nc2nc3ccccc3nc2NS(=O)(=O)c2ccc(Cl)cc2)cc1` [CBK296072], the viability at 28.5 h, 10 µM turned out to be 98.5%. Then `CC(NC(=O)CCc1nc2ccccc2n1C)c1ccccn1` (centres unmarked) [CBK281823], with 89%; and `Cc1nc(C)c(-c2csc(Nc3ccc(O)cc3C)n2)s1` [CBK267346], with 98.7%; and `c1ccc(OCCN2CCCN(c3nccc(OCCN4CCOCC4)n3)CC2)cc1` [CBK083940], with 110%.
